The subject of one experiment is RS4;11 cells. As to the kind of experiment: Cell viability assay (CellTiter-Glo) in RS4;11 cell line. Format: cell-based. As to conditions: 24 hours, 10% Human Serum, 50% decrease in cell viability. The source says:
(§1) The acute lymphoblastic leukemia (ALL) human cell line RS4;11 (ATCC, Manassas VA) was used as the primary human cell line to assess the cellular activity of compound of the present Examples in vitro and their efficacy in vivo. BH3 profiling, a mitochondrial assay that classifies blocks in the intrinsic apoptotic pathway, has shown that RS4;11 cells were highly dependent on Bcl-2 protein for survival and were sensitive to a Bcl-2 inhibitor (Blood. 2008; 111(4):2300-2309). […] The acute lymphoblastic leukemia cell line Molt-4, which is derived from immature T-lymphoid cells (T-ALL), was used as a counter screen assay.
(§2) Frozen RS4;11 or Molt-4 cells (ATCC, Manassas, VA, USA) were thawed overnight in RPMI 1640 media (Thermo Fisher Scientific, Waltham, MA, USA) supplemented with 1% penicillin/streptomycin (Thermo Fisher Scientific, Waltham, MA, USA), and 10% Human Serum (Sigma, St. Louis, MO, USA). 3000 Cells (0.1×10^6/mL) were seeded in each well of 384-well plate and were treated for 24 hours in a humidified chamber with 5% CO2. Cell viability was determined by CellTiter-Glo as described by the manufacturer's instructions (Promega Corporation, Madison, WI, USA). Responses were determined as a percentage of the control treated cells and the effective concentration (EC50) to induce a 50% decrease in cell viability were determined from sigmoidal dose-response curves using Dotmatics (Dotmatics Software Company, Bishops Stortford, Hertfordshire, England).

The next experiment has as its system Molt-4 cells. As to the kind of experiment: Cell viability counter screen assay (CellTiter-Glo) in Molt-4 cells. It counts as cell-based. The following applies: 24 hours, 10% Human Serum, 50% decrease in cell viability.
From the text: as §1, §2
On the technique in general: Counterscreens check selectivity or assay interference.

The source of these data is patent US11964990B2, “1,3,4,7-tetrahydro-2H-pyrrolo[3′,2′:5,6]pyrido[2,3-b][1,4]oxazepine bcl-2 inhibitors” (AbbVie Inc., priority 2022, dated 2024).

Broadly, the EC50 is the midpoint of the concentration-response curve. Read a high EC50 as a less potent agent.

As for `CC1(C)CC(c2ccc(Cl)cc2)=C2CN3CCN(c4ccc(C(=O)NS(=O)(=O)c5ccc(NCC6CCOCC6)c([N+](=O)[O-])c5)c(N5CCCOc6nc7[nH]ccc7cc65)c4)C[C@H]3COCCCO[C@@H]2C1` [Example 1, 4-((4aS,10aR)-14-(4-chlorophenyl)-12,12-dimethyl-1,2,4a,5,8,9,10a,11,13,15-decahydro-7H,12H-benzo[f]pyrazino[2,1-c][1,8]dioxa[4]azacycloundecin-3(4H)-yl)-2-(3,4-dihydro-2H-pyrrolo[3′,2′:5,6]pyrido[2,3-b][1,4]oxazepin-1(7H)-yl)-N-((3-nitro-4-(((tetrahydro-2H-pyran-4-yl)methyl)amino)phenyl)sulfonyl)benzamide], the EC50 is 4.01 nM in the experiment on RS4;11 cells and > 10000 nM with Molt-4 cells.

For the compound `CC1(C)CC(c2ccc(Cl)cc2)=C2CN3CCN(c4ccc(C(=O)NS(=O)(=O)c5ccc(NCC6(F)CCN(C7COC7)CC6)c([N+](=O)[O-])c5)c(N5CCCOc6nc7[nH]ccc7cc65)c4)C[C@H]3COCCCO[C@@H]2C1` [Example 39, 4-((4aS,10aR)-14-(4-chlorophenyl)-12,12-dimethyl-1,2,4a,5,8,9,10a,11,13,15-decahydro-7H,12H-benzo[f]pyrazino[2,1-c][1,8]dioxa[4]azacycloundecin-3(4H)-yl)-2-(3,4-dihydro-2H-pyrrolo[3′,2′:5,6]pyrido[2,3-b][1,4]oxazepin-1(7H)-yl)-N-((4-(((4-fluoro-1-(oxetan-3-yl)piperidin-4-yl)methyl)amino)-3-nitrophenyl)sulfonyl)benzamide], the EC50 in the experiment on RS4;11 cells was 1.66 nM; with Molt-4 cells, 453 nM.

For the compound `CC1(C)CC(c2ccc(Cl)cc2)=C2CN3CCN(c4ccc(C(=O)NS(=O)(=O)c5ccc(NC[C@H]6CC[C@](C)(O)CC6)c([N+](=O)[O-])c5)c(N5CCCOc6nc7[nH]ccc7cc65)c4)C[C@H]3COCCCO[C@@H]2C1` [Example 32, 4-((4aS,10aR)-14-(4-chlorophenyl)-12,12-dimethyl-1,2,4a,5,8,9,10a,11,13,15-decahydro-7H,12H-benzo[f]pyrazino[2,1-c][1,8]dioxa[4]azacycloundecin-3(4H)-yl)-2-(3,4-dihydro-2H-pyrrolo[3′,2′:5,6]pyrido[2,3-b][1,4]oxazepin-1(7H)-yl)-N-((4-((((1r,4r)-4-hydroxy-4-methylcyclohexyl)methyl)amino)-3-nitrophenyl)sulfonyl)benzamide], the results for the EC50 in the experiment on RS4;11 cells and with Molt-4 cells were 1.67 nM and 9570 nM, respectively.

`CC1(C)CC(c2ccc(Cl)cc2)=C2CN3CCN(c4ccc(C(=O)NS(=O)(=O)c5ccc(NC[C@H]6C[C@@](O)(CF)C6)c([N+](=O)[O-])c5)c(N5CCCOc6nc7[nH]ccc7cc65)c4)C[C@H]3COCCCO[C@@H]2C1` [Example 8, 4-((4aS,10aR)-14-(4-chlorophenyl)-12,12-dimethyl-1,2,4a,5,8,9,10a,11,13,15-decahydro-7H,12H-benzo[f]pyrazino[2,1-c][1,8]dioxa[4]azacycloundecin-3(4H)-yl)-2-(3,4-dihydro-2H-pyrrolo[3′,2′:5,6]pyrido[2,3-b][1,4]oxazepin-1(7H)-yl)-N-((4-((((1r,3r)-3-(fluoromethyl)-3-hydroxycyclobutyl)methyl)amino)-3-nitrophenyl)sulfonyl)benzamide]: the EC50 in the experiment on RS4;11 cells was found to be 3.61 nM; with Molt-4 cells, 7480 nM.

Regarding `CC1(C)CC(c2ccc(Cl)cc2)=C2CN3CCN(c4ccc(C(=O)NS(=O)(=O)c5ccc(NC[C@H]6COCCO6)c([N+](=O)[O-])c5)c(N5CCCOc6nc7[nH]ccc7cc65)c4)C[C@H]3COCCCO[C@@H]2C1` [Example 3, N-((4-((((S)-1,4-dioxan-2-yl)methyl)amino)-3-nitrophenyl)sulfonyl)-4-((4aS,10aR)-14-(4-chlorophenyl)-12,12-dimethyl-1,2,4a,5,8,9,10a,11,13,15-decahydro-7H,12H-benzo[f]pyrazino[2,1-c][1,8]dioxa[4]azacycloundecin-3(4H)-yl)-2-(3,4-dihydro-2H-pyrrolo[3′,2′:5,6]pyrido[2,3-b][1,4]oxazepin-1(7H)-yl)benzamide], the EC50 amounted to 1.36 nM with RS4;11 cells and 1410 nM in the experiment on Molt-4 cells.

On to `CO[C@H]1CC[C@H](CNc2ccc(S(=O)(=O)NC(=O)c3ccc(N4CCN5CC6=C(c7ccc(Cl)cc7)CC(C)(C)C[C@H]6OCCCOC[C@@H]5C4)cc3N3CCCOc4nc5[nH]ccc5cc43)cc2Cl)OC1` [Example 34, N-((3-chloro-4-((((2R,5S)-5-methoxytetrahydro-2H-pyran-2-yl)methyl)amino)phenyl)sulfonyl)-4-((4aS,10aR)-14-(4-chlorophenyl)-12,12-dimethyl-1,2,4a,5,8,9,10a,11,13,15-decahydro-7H,12H-benzo[f]pyrazino[2,1-c][1,8]dioxa[4]azacycloundecin-3(4H)-yl)-2-(3,4-dihydro-2H-pyrrolo[3′,2′:5,6]pyrido[2,3-b][1,4]oxazepin-1(7H)-yl)benzamide], for which the results for the EC50 in the experiment on RS4;11 cells and in the experiment on Molt-4 cells were 57.6 nM and > 10000 nM, respectively.

Regarding `C[C@@H]1CC[C@H](CNc2ccc(S(=O)(=O)NC(=O)c3ccc(N4CCN5CC6=C(c7ccc(Cl)cc7)CC(C)(C)C[C@H]6OCCCOC[C@@H]5C4)cc3N3CCCOc4nc5[nH]ccc5cc43)cc2[N+](=O)[O-])OC1` [Example 21, 4-((4aS,10aR)-14-(4-chlorophenyl)-12,12-dimethyl-1,2,4a,5,8,9,10a,11,13,15-decahydro-7H,12H-benzo[f]pyrazino[2,1-c][1,8]dioxa[4]azacycloundecin-3(4H)-yl)-2-(3,4-dihydro-2H-pyrrolo[3′,2′:5,6]pyrido[2,3-b][1,4]oxazepin-1(7H)-yl)-N-((4-((((2R,5R)-5-methyltetrahydro-2H-pyran-2-yl)methyl)amino)-3-nitrophenyl)sulfonyl)benzamide], the EC50 in the experiment with RS4;11 cells amounted to 4.89 nM; in the experiment on Molt-4 cells it was 3280 nM.

Consider `CC1(C)CC(c2ccc(Cl)cc2)=C2CN3CCN(c4ccc(C(=O)NS(=O)(=O)c5ccc(NC[C@H]6C[C@](O)(CF)C6)c([N+](=O)[O-])c5)c(N5CCCOc6nc7[nH]ccc7cc65)c4)C[C@H]3COCCCO[C@@H]2C1` [Example 16, 4-((4aS,10aR)-14-(4-chlorophenyl)-12,12-dimethyl-1,2,4a,5,8,9,10a,11,13,15-decahydro-7H,12H-benzo[f]pyrazino[2,1-c][1,8]dioxa[4]azacycloundecin-3(4H)-yl)-2-(3,4-dihydro-2H-pyrrolo[3′,2′:5,6]pyrido[2,3-h][1,4]oxazepin-1(7H)-yl)-N-((4-((((1s,3s)-3-(fluoromethyl)-3-hydroxycyclobutyl)methyl)amino)-3-nitrophenyl)sulfonyl)benzamide], for which the EC50 stood at 1.51 nM in the experiment on RS4;11 cells and 1260 nM with Molt-4 cells.

As for `CC1(C)CC(c2ccc(Cl)cc2)=C2CN3CCN(c4ccc(C(=O)NS(=O)(=O)c5cnc(OC[C@]6(F)CC[C@H](N7CCOCC7)CC6)c(Cl)c5)c(N5CCCOc6nc7[nH]ccc7cc65)c4)C[C@H]3COCCCO[C@@H]2C1` [Example 11, N-((5-chloro-6-(((1r,4r)-1-fluoro-4-morpholinocyclohexyl)methoxy)pyridin-3-yl)sulfonyl)-4-((4aS,10aR)-14-(4-chlorophenyl)-12,12-dimethyl-1,2,4a,5,8,9,10a, 11,13,15-decahydro-7H,12H-benzo[f]pyrazino[2,1-c][1,8]dioxa[4]azacycloundecin-3(4H)-yl)-2-(3,4-dihydro-2H-pyrrolo[3′,2′:5,6]pyrido[2,3-b][1,4]oxazepin-1(7H)-yl)benzamide], the EC50 in the experiment with RS4;11 cells is 19 nM; in the experiment on Molt-4 cells, 3710 nM.

For `CC1(C)CC(c2ccc(Cl)cc2)=C2CN3CCN(c4ccc(C(=O)NS(=O)(=O)c5ccc(OCC6CCOCC6)c([N+](=O)[O-])c5)c(N5CCCOc6nc7[nH]ccc7cc65)c4)C[C@H]3COCCCO[C@@H]2C1` [Example 46, 4-((4aS,10aR)-14-(4-chlorophenyl)-12,12-dimethyl-1,2,4a,5,8,9,10a,11,13,15-decahydro-7H,12H-benzo[f]pyrazino[2,1-c][1,8]dioxa[4]azacycloundecin-3(4H)-yl)-2-(3,4-dihydro-2H-pyrrolo[3′,2′:5,6]pyrido[2,3-b][1,4]oxazepin-1(7H)-yl)-N-((3-nitro-4-((tetrahydro-2H-pyran-4-yl)methoxy)phenyl)sulfonyl)benzamide], the figures for the EC50 in the experiment on RS4;11 cells and with Molt-4 cells were 9.36 nM and > 10000 nM, respectively.

`C[C@@H]1CO[C@@H](CNc2ccc(S(=O)(=O)NC(=O)c3ccc(N4CCN5CC6=C(c7ccc(Cl)cc7)CC(C)(C)C[C@H]6OCCCOC[C@@H]5C4)cc3N3CCCOc4nc5[nH]ccc5cc43)cc2[N+](=O)[O-])CO1` [Example 6, 4-((4aS,10aR)-14-(4-chlorophenyl)-12,12-dimethyl-1,2,4a,5,8,9,10a,11,13,15-decahydro-7H,12H-benzo[f]pyrazino[2,1-c][1,8]dioxa[4]azacycloundecin-3(4H)-yl)-2-(3,4-dihydro-2H-pyrrolo[3′,2′:5,6]pyrido[2,3-b][1,4]oxazepin-1(7H)-yl)-N-((4-((((2S,5R)-5-methyl-1,4-dioxan-2-yl)methyl)amino)-3-nitrophenyl)sulfonyl)benzamide]: the EC50 with RS4;11 cells turned out to be 1.55 nM; in the experiment with Molt-4 cells it was 1910 nM.
